The subject of the assay is C666-1 cells. Put plainly: C666-1 cell viability single concentration (50 μM) inhibition rate (Resazurin). Type of assay: cell-based. As to conditions: Homo sapiens, C6661, 72 h, 50 μM compound, 72 hours, C666-1 cells; read-out: C666-1 cell viability single concentration (50 μM) inhibition rate, Ratio* (Inh %). The essentials:
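Resazurin fluorescence (560/590 nm, 3 h development) gave the proliferation inhibition rate, normalised to DMSO-treated and cell-free blank wells. Compound was tested at a single 50 μmol/L final concentration on C666-1 cells for 72 h at 37° C, with duplicate wells, after 24 h seeding.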
(In general: Resazurin is reduced to fluorescent resorufin, in cell work by metabolically active cells.)

For the molecule `COC(=O)c1cccc(N2CC(Oc3ccc(NC(=O)Nc4cccc(C#N)c4)cc3)C2)c1-n1cccc1` [Example 137, Methyl 3-(3-(4-(3-(3-cyanophenyl)ureido)phenoxy)azetidin-1-yl)-2-(1H-pyrrol-1-yl)benzoate], the inhibition at 50 µM was over 50%.
In the case of `N#Cc1cccc(NC(=O)Nc2ccc(OC3CN(c4cccc(C(=O)O)c4-n4cccc4)C3)cc2)c1` [Example 138, 3-(3-(4-(3-(3-cyanophenyl)ureido)phenoxy)azetidin-1-yl)-2-(1H-pyrrol-1-yl)benzoic acid], the inhibition at 50 µM was under 10%.
As to `COC(=O)c1cccc(N2CC(OCc3ccc(OC)cc3)C2)c1-n1cccc1` [Example 139, Methyl 3-(3-((4-methoxybenzyl)oxy)azetidin-1-yl)-2-(1H-pyrrol-1-yl)benzoate], the inhibition at 50 µM was under 10%.
The same measure for `COC(=O)c1cccc(N2CC(OCc3cscn3)C2)c1-n1cccc1` [Example 140]: 10 to 30%.
For the molecule `O=C(O)c1cccc(N2CC(OCc3cscn3)C2)c1-n1cccc1` [Example 141], the inhibition at 50 µM is under 10%.
As to `COC(=O)c1cccc(N2CC(OCc3cnccn3)C2)c1-n1cccc1` [Example 142], the inhibition at 50 µM is under 10%.
Take `O=C(O)c1cccc(N2CC(OCc3cnccn3)C2)c1-n1cccc1` [Example 143]: the inhibition at 50 µM is under 10%.
For the molecule `COC(=O)c1cccc(N2CC(OCC(=O)Nc3ccccc3)C2)c1-n1cccc1` [Example 144, Methyl 3-(3-(2-oxo-2-(phenylamino)ethoxy)azetidin-1-yl)-2-(1H-pyrrol-1-yl)benzoate], the inhibition at 50 µM fell in the range of 10 to 30%.
Turning to `O=C(COC1CN(c2cccc(C(=O)O)c2-n2cccc2)C1)Nc1ccccc1` [Example 145, 3-(3-(2-oxo-2-(phenylamino)ethoxy)azetidin-1-yl)-2-(1H-pyrrol-1-yl)benzoic acid], the inhibition at 50 µM is under 10%.
Take `O=C(O)c1cccc(N2CC(OC(=S)Nc3ccc(Cl)cc3)C2)c1-n1cccc1` [Example 148, 3-(3-(((4-chlorophenyl)thiocarbamoyl)oxy)azetidin-1-yl)-2-(1H-pyrrol-1-yl)benzoic acid]: the inhibition at 50 µM was under 10%.
Take `COC(=O)c1cccc(N2CC(OC(=O)NC3CCCCC3)C2)c1-n1cccc1` [Example 149, Methyl 3-(3-((cyclohexylcarbamoyl)oxy)azetidin-1-yl)-2-(1H-pyrrol-1-yl)benzoate]: the inhibition at 50 µM was in the range of 10 to 30%.
As for `O=C(NC1CCCCC1)OC1CN(c2cccc(C(=O)O)c2-n2cccc2)C1` [Example 150, 3-(3-((cyclohexylcarbamoyl)oxy)azetidin-1-yl)-2-(1H-pyrrol-1-yl)benzoic acid], the inhibition at 50 µM was under 10%.
As for `COC(=O)c1cccc(N2CC(OC(=O)Nc3ccc(C4CNCCO4)c(F)c3)C2)c1-n1cccc1` (stereo not drawn) [Example 151, Methyl 3-(3-(((3-fluoro-4-(morpholin-2-yl)phenyl)carbamoyl)oxy)azetidin-1-yl)-2-(1H-pyrrol-1-yl)benzoate], the inhibition at 50 µM fell in the range of 10 to 30%.
As for `COC(=O)c1cccc(N2CC(OC(=O)NC3CC3)C2)c1-n1cccc1` [Example 155, Methyl 3-(3-((cyclopropylcarbamoyl)oxy)azetidin-1-yl)-2-(1H-pyrrol-1-yl)benzoate], the inhibition at 50 µM was 10 to 30%.
With `COC(=O)c1cccc(N2CC(OC(=S)Nc3ccc(Br)cc3)C2)c1-n1cccc1` [Example 156, Methyl 3-(3-(((4-bromophenyl)thiocarbamoyl)oxy)azetidin-1-yl)-2-(1H-pyrrol-1-yl)benzoate], the inhibition at 50 µM lay in the range of 30 to 50%.
For the molecule `O=C(O)c1cccc(N2CC(OC(=S)Nc3ccc(Br)cc3)C2)c1-n1cccc1` [Example 157, 3-(3-(((4-bromophenyl)thiocarbamoyl)oxy)azetidin-1-yl)-2-(1H-pyrrol-1-yl)benzoic acid], the inhibition at 50 µM was under 10%.
Consider `COC(=O)c1cccc(N2CC(OC(=S)Nc3ccc(OC)cc3)C2)c1-n1cccc1` [Example 158, Methyl 3-(3-(((4-methoxyphenyl)thiocarbamoyl)oxy)azetidin-1-yl)-2-(1H-pyrrol-1-yl)benzoate], for which the inhibition at 50 µM was over 50%.
Take `COc1ccc(NC(=S)OC2CN(c3cccc(C(=O)O)c3-n3cccc3)C2)cc1` [Example 159, 3-(3-(((4-methoxyphenyl)thiocarbamoyl)oxy)azetidin-1-yl)-2-(1H-pyrrol-1-yl)benzoic acid]: the inhibition at 50 µM was under 10%.
On to `CCNC(=S)OC1CN(c2cccc(C(=O)OC)c2-n2cccc2)C1` [Example 160, Methyl 3-(3-((ethylthiocarbamoyl)oxy)azetidin-1-yl)-2-(1H-pyrrol-1-yl)benzoate], for which the inhibition at 50 µM lay in the range of 30 to 50%.
In the case of `CCNC(=S)OC1CN(c2cccc(C(=O)O)c2-n2cccc2)C1` [Example 161, 3-(3-((ethylthiocarbamoyl)oxy)azetidin-1-yl)-2-(1H-pyrrol-1-yl)benzoic acid], the inhibition at 50 µM is under 10%.
The figure for `COC(=O)c1cccc(N2CC(OC(=S)Nc3ccc(Cl)cc3Cl)C2)c1-n1cccc1` [Example 162, Methyl 3-(3-(((2,4-dichlorophenyl)thiocarbamoyl)oxy)azetidin-1-yl)-2-(1H-pyrrol-1-yl)benzoate] is 10 to 30%.
Take `O=C(O)c1cccc(N2CC(OC(=S)Nc3ccc(Cl)cc3Cl)C2)c1-n1cccc1` [Example 163, 3-(3-(((2,4-dichlorophenyl)thiocarbamoyl)oxy)azetidin-1-yl)-2-(1H-pyrrol-1-yl)benzoic acid]: the inhibition at 50 µM was under 10%.
Turning to `COC(=O)c1cccc(N2CC(NC(=O)NC3CC3)C2)c1-n1cccc1` [Example 164, Methyl 3-(3-(3-cyclopropylureido)azetidin-1-yl)-2-(1H-pyrrol-1-yl)benzoate], the inhibition at 50 µM is under 10%.
As to `COC(=O)c1cccc(N2CC(NC(=O)Nc3ccc(Oc4ccccc4)cc3)C2)c1-n1cccc1` [Example 165, Methyl 3-(3-(3-(4-phenoxyphenyl)ureido)azetidin-1-yl)-2-(H-pyrrol-1-yl)benzoate], the inhibition at 50 µM lay in the range of 10 to 30%.
On to `COC(=O)c1cccc(N2CC(NC(=O)Nc3ccc(OC(F)(F)F)cc3)C2)c1-n1cccc1` [Example 166, Methyl 2-(1H-pyrrol-1-yl)-3-(3-(3-(4-(trifluoromethoxy)phenyl)ureido)azetidin-1-yl)benzoate], for which the inhibition at 50 µM is over 50%.
For `O=C(Nc1ccc(Oc2ccccc2)cc1)NC1CN(c2cccc(C(=O)O)c2-n2cccc2)C1` [Example 167, 3-(3-(3-(4-phenoxyphenyl)ureido)azetidin-1-yl)-2-(1H-pyrrol-1-yl)benzoic acid], the inhibition at 50 µM was under 10%.
Turning to `O=C(Nc1ccc(OC(F)(F)F)cc1)NC1CN(c2cccc(C(=O)O)c2-n2cccc2)C1` [Example 168, 2-(1H-pyrrol-1-yl)-3-(3-(3-(4-(trifluoromethoxy)phenyl)ureido)azetidin-1-yl)benzoic acid], the inhibition at 50 µM was under 10%.
Regarding `O=C(NC1CC1)NC1CN(c2cccc(C(=O)O)c2-n2cccc2)C1` [Example 169, 3-(3-(3-cyclopropylureido)azetidin-1-yl)-2-(1H-pyrrol-1-yl)benzoic acid], the inhibition at 50 µM is under 10%.
With `COC(=O)c1cccc(N2CC(NC(=O)Nc3cc(OC)cc(OC)c3)C2)c1-n1cccc1` [Example 170, Methyl 3-(3-(3-(3,5-dimethoxyphenyl)ureido)azetidin-1-yl)-2-(1H-pyrrol-1-yl)benzoate], the inhibition at 50 µM lay in the range of 10 to 30%.
On to `COc1cc(NC(=O)NC2CN(c3cccc(C(=O)O)c3-n3cccc3)C2)cc(OC)c1` [Example 171, 3-(3-(3-(3,5-dimethoxyphenyl)ureido)azetidin-1-yl)-2-(1H-pyrrol-1-yl)benzoic acid], for which the inhibition at 50 µM was under 10%.
Take `CCNC(=S)NC1CN(c2cccc(C(=O)OC)c2-n2cccc2)C1` [Example 172, Methyl 3-(3-(3-ethylthioureido)azetidin-1-yl)-2-(1H-pyrrol-1-yl)benzoate]: the inhibition at 50 µM was 10 to 30%.
Consider `CCNC(=S)NC1CN(c2cccc(C(=O)O)c2-n2cccc2)C1` [Example 173, 3-(3-(3-ethylthioureido)azetidin-1-yl)-2-(1H-pyrrol-1-yl)benzoic acid], for which the inhibition at 50 µM is under 10%.
The same measure for `COC(=O)c1cccc(N2CC(NC(=S)Nc3ccc(Cl)cc3)C2)c1-n1cccc1` [Example 174, Methyl 3-(3-(3-(4-chlorophenyl)thioureido)azetidin-1-yl)-2-(1H-pyrrol-1-yl)benzoate]: over 50%.
As for `O=C(O)c1cccc(N2CC(NC(=S)Nc3ccc(Cl)cc3)C2)c1-n1cccc1` [Example 175, 3-(3-(3-(4-chlorophenyl)thioureido)azetidin-1-yl)-2-(1H-pyrrol-1-yl)benzoic acid], the inhibition at 50 µM is under 10%.
For `COC(=O)c1cccc(N2CC(NS(=O)(=O)c3ccc(C)cc3)C2)c1-n1cccc1` [Example 176, Methyl 3-(3-((4-methylphenyl)sulfonamido)azetidin-1-yl)-2-(1H-pyrrol-1-yl)benzoate], the inhibition at 50 µM was 10 to 30%.
Take `Cc1ccc(S(=O)(=O)NC2CN(c3cccc(C(=O)O)c3-n3cccc3)C2)cc1` [Example 177, 3-(3-((4-methylphenyl)sulfonamido)azetidin-1-yl)-2-(1H-pyrrol-1-yl)benzoic acid]: the inhibition at 50 µM was under 10%.
Regarding `COC(=O)c1cccc(N2CC(NC(=O)c3ccccc3)C2)c1-n1cccc1` [Example 178, Methyl 3-(3-benzamidoazetidin-1-yl)-2-(1H-pyrrol-1-yl)benzoate], the inhibition at 50 µM fell in the range of 10 to 30%.
The same measure for `O=C(NC1CN(c2cccc(C(=O)O)c2-n2cccc2)C1)c1ccccc1` [Example 179, 3-(3-benzamidoazetidin-1-yl)-2-(1H-pyrrol-1-yl)benzoic acid]: under 10%.
`COC(=O)c1cccc(N2CC(NC(=O)c3ccccc3[N+](=O)[O-])C2)c1-n1cccc1` [Example 180, Methyl 3-(3-(2-nitrobenzamido)azetidin-1-yl)-2-(1H-pyrrol-1-yl)benzoate]: the inhibition at 50 µM is 30 to 50%.
